Reference: patent US6472563B1, “Formoterol tartrate process and polymorph” (Sepracor Inc., priority 2001, dated 2002)

Experiments:
[1] = compared to other salts of R,R-formoterol; cited from earlier work
[2] = Dissolution studies: 17 wt % slurry in 50% aqueous isopropyl alcohol stirred with warming; type: physicochemical; details: listed as form A
Experimental: Dissolution studies were done on each polymorph. A 17 wt % slurry of the respective solid in 50% aqueous isopropyl alcohol was stirred with warming, and the temperature of dissolution was recorded.

[3] = factor; cited from earlier work

COc1ccc(C[C@@H](C)NC[C@H](O)c2ccc(O)c(NC=O)c2)cc1.O=C(O)C(O)C(O)C(=O)O [L-(+)-tartrate salt of R,R-formoterol, (R,R)-formoterol L-tartrate]
hygroscopicity [1]: non-hygroscopic

COc1ccc(C[C@@H](C)NC[C@H](O)c2ccc(O)c(NC=O)c2)cc1.O=C(O)C(O)C(O)C(=O)O [Polymorph A, (R,R)-formoterol L-tartrate]
temperature of dissolution [2]: 65-70 °C

CCCCCCCCCCCCCCCC(=O)OC[C@@H](NC(=O)C(Cl)Cl)[C@H](O)c1ccc([N+](=O)[O-])cc1 [Chloramphenicol-3-palmitate]
difference in bio-activity between form A and form B [3]: eight
